# Test results reported in US12521440B2, “Degradation of bruton's tyrosine kinase (BTK) by conjugation of BTK inhibitors with E3 ligase ligand and methods of use” (BeOne Medicines I GmbH, priority 2021, dated 2026).
# Assays:
# [1] = biological target: T1, BTK (Homo sapiens, UniProt Q06187); test: BTK degradation in TMD-8 cells (HTRF assay); format: cell-based; details: 6 h treatment, HTRF BTK degradation IC50 (DC50)
# T1 construct: endogenous in cells; host or cells: TMD-8 cells
# Method in brief: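 BTK levels measured by HTRF (665/620 nm) in lysates of TMD-8 cells after 6 h compound treatment, with antibody incubation overnight at room temperature. Dosing covered 8 points, 6-fold dilutions from 1 mM 500× stocks, 0.2% DMSO final. Four-parameter curve fitting gave DC50.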
# [2] = tested on: HEK-293 cells; test: HEK-293 cytotoxicity detection (CellTiter-Glo); format: cell-based; details: Homo sapiens, 72 h incubation, read-out: HEK293
# Method in brief: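 Cytotoxicity IC50 derived by four-parameter curve fitting of percent inhibition of CellTiter-Glo luminescence. Compounds tested at 8 doses in 4-fold steps, 0.2% DMSO, on HEK-293 cells for 72 h.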
# T1 sequence (Q06187 whole entry): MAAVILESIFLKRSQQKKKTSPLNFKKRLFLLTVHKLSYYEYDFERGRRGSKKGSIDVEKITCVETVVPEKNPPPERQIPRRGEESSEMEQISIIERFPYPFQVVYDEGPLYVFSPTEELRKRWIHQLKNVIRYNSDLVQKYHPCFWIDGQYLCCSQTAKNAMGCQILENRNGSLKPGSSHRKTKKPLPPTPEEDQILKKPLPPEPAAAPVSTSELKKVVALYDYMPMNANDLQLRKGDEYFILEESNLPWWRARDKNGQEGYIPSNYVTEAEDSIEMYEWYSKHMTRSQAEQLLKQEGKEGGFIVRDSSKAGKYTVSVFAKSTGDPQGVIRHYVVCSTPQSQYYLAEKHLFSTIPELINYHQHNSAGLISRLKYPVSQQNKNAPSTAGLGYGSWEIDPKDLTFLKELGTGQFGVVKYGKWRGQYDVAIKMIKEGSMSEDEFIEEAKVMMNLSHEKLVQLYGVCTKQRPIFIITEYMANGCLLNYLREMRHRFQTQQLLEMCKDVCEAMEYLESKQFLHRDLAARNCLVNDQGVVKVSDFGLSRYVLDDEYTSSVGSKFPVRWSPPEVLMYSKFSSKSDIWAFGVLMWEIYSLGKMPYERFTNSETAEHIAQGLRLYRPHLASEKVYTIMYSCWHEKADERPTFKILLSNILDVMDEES
DC50 [1] [nM],SMILES,IC50 [2] [nM]
0.979,COc1nc(Nc2cc(-c3ccc([C@@H](C)NC(=O)c4nc(C(C)(C)C)no4)c(C)c3)ncn2)ccc1N1CCN(CC2CCN(c3ccc(N4CCC(=O)NC4=O)cc3)CC2)CC1 [Example 63],614
26,"COc1cc(Nc2cc(-c3ccc([C@@H](C)NC(=O)c4nc(C(C)(C)C)no4)c(C)c3)ncn2)ncc1N1CCN(CC2CCN(c3ccc(N4CCC(=O)NC4=O)cc3)CC2)CC1 [Example 64, (R)-3-(tert-butyl)-N-(1-(4-(6-((5-(4-((1-(4-(2,4-dioxotetrahydropyrimidin-1(2H)-yl)phenyl)piperidin-4-yl)methyl)piperazin-1-yl)-4-methoxypyridin-2-yl)amino)pyrimidin-4-yl)-2-methylphenyl)ethyl)-1,2,4-oxadiazole-5-carboxamide]",> 10000
3.7,Cc1cc(-c2cc(Nc3cc(F)c(N4CCN(CC5CCN(c6ccc(N7CCC(=O)NC7=O)cc6)CC5)CC4)cn3)ncn2)ccc1[C@@H](C)NC(=O)c1nc(C(C)(C)C)no1 [Example 65],> 10000
2.93,"Cc1cc(-c2ccnc(Nc3ccc(N4CCN(CC5CCN(c6ccc(N7CCC(=O)NC7=O)cc6)CC5)CC4)c(F)n3)n2)ccc1[C@@H](C)NC(=O)c1nc(C(C)(C)C)no1 [Example 66, (R)-3-(tert-butyl)-N-(1-(4-(2-((5-(4-((1-(4-(2,4-dioxotetrahydropyrimidin-1(2H)-yl)phenyl)piperidin-4-yl)methyl)piperazin-1-yl)-6-fluoropyridin-2-yl)amino)pyrimidin-4-yl)-2-methylphenyl)ethyl)-1,2,4-oxadiazole-5-carboxamide]",> 10000
10.6,"Cc1cc(-c2ccnc(Nc3ccc(N4CCN(CC5CCN(c6ccc(N7CCC(=O)NC7=O)cc6)CC5)CC4)cn3)n2)ccc1[C@@H](C)NC(=O)c1nc(C(C)(C)C)no1 [Example 67, (R)-3-(tert-butyl)-N-(1-(4-(2-((5-(4-((1-(4-(2,4-dioxotetrahydropyrimidin-1(2H)-yl)phenyl)piperidin-4-yl)methyl)piperazin-1-yl)pyridin-2-yl)amino)pyrimidin-4-yl)-2-methylphenyl)ethyl)-1,2,4-oxadiazole-5-carboxamide]",> 10000
17.4,"Cc1cc(-c2ccnc(Nc3ccc(N4CCN(C5CC6(CCN(c7ccc(N8CCC(=O)NC8=O)cc7)CC6)C5)CC4)cn3)n2)ccc1[C@@H](C)NC(=O)c1nc(C(C)(C)C)no1 [Example 68, (R)-3-(tert-butyl)-N-(1-(4-(2-((5-(4-(7-(4-(2,4-dioxotetrahydropyrimidin-1(2H)-yl)phenyl)-7-azaspiro[3.5]nonan-2-yl)piperazin-1-yl)pyridin-2-yl)amino)pyrimidin-4-yl)-2-methylphenyl)ethyl)-1,2,4-oxadiazole-5-carboxamide]",> 10000
2.42,"Cc1cc(-c2ccnc(Nc3ccc(N4CCN(CC5CCN(c6ccc(N7CCC(=O)NC7=O)cc6)CC5)CC4)cc3)n2)ccc1[C@@H](C)NC(=O)c1nc(C(C)(C)C)no1 [Example 69, (R)-3-(tert-butyl)-N-(1-(4-(2-((4-(4-((1-(4-(2,4-dioxotetrahydropyrimidin-1(2H)-yl)phenyl)piperidin-4-yl)methyl)piperazin-1-yl)phenyl)amino)pyrimidin-4-yl)-2-methylphenyl)ethyl)-1,2,4-oxadiazole-5-carboxamide]",> 10000
> 2000,"Cc1cc(-c2ncnc(Nc3ccc(N4CCN(CC5CCN(c6ccc(N7CCC(=O)NC7=O)cc6)CC5)CC4)cn3)c2F)ccc1[C@@H](C)NC(=O)c1nc(C(C)(C)C)no1 [Example 70, (R)-3-(tert-butyl)-N-(1-(4-(6-((5-(4-((1-(4-(2,4-dioxotetrahydropyrimidin-1(2H)-yl)phenyl)piperidin-4-yl)methyl)piperazin-1-yl)pyridin-2-yl)amino)-5-fluoropyrimidin-4-yl)-2-methylphenyl)ethyl)-1,2,4-oxadiazole-5-carboxamide]",> 10000

# Further lines, the compound ahead of its results:
SMILES,DC50 [1] [nM],IC50 [2] [nM]
"Cc1cc(-c2cc(Nc3ccc(N4CCN(CC5CCN(c6cccc(CN7CCC(=O)NC7=O)c6)CC5)CC4)cn3)ncn2)ccc1[C@@H](C)NC(=O)c1nc(C(C)(C)C)no1 [Example 57, (R)-3-(tert-butyl)-N-(1-(4-(6-((5-(4-((1-(3-((2,4-dioxotetrahydropyrimidin-1(2H)-yl)methyl)phenyl)piperidin-4-yl)methyl)piperazin-1-yl)pyridin-2-yl)amino)pyrimidin-4-yl)-2-methylphenyl)ethyl)-1,2,4-oxadiazole-5-carboxamide]",29.5,> 10000
"Cc1cc(-c2cc(Nc3ccc(N4CCN(CCn5cccc(CN6CCC(=O)NC6=O)c5=O)CC4)cn3)ncn2)ccc1[C@@H](C)NC(=O)c1nc(C(C)(C)C)no1 [Example 58, (R)-3-(tert-butyl)-N-(1-(4-(6-((5-(4-(2-(3-((2,4-dioxotetrahydropyrimidin-1(2H)-yl)methyl)-2-oxopyridin-1(2H)-yl)ethyl)piperazin-1-yl)pyridin-2-yl)amino)pyrimidin-4-yl)-2-methylphenyl)ethyl)-1,2,4-oxadiazole-5-carboxamide]",0.276,> 10000
"Cc1cc(-c2cc(Nc3ccc(N4CCN(CC5CCN(c6ccc(CN7CCC(=O)NC7=O)cc6)CC5)CC4)cn3)ncn2)ccc1[C@@H](C)NC(=O)c1nc(C(C)(C)C)no1 [Example 59, (R)-3-(tert-butyl)-N-(1-(4-(6-((5-(4-((1-(4-((2,4-dioxotetrahydropyrimidin-1(2H)-yl)methyl)phenyl)piperidin-4-yl)methyl)piperazin-1-yl)pyridin-2-yl)amino)pyrimidin-4-yl)-2-methylphenyl)ethyl)-1,2,4-oxadiazole-5-carboxamide]",10.2,> 10000
"CCc1nc(Nc2cc(-c3ccc([C@@H](C)NC(=O)c4nc(C(C)(C)C)no4)c(C)c3)ncn2)ccc1N1CCN(CC2CCN(c3ccc(N4CCC(=O)NC4=O)cc3)CC2)CC1 [Example 60, (R)-3-(tert-butyl)-N-(1-(4-(6-((5-(4-((1-(4-(2,4-dioxotetrahydropyrimidin-1(2H)-yl)phenyl)piperidin-4-yl)methyl)piperazin-1-yl)-6-ethylpyridin-2-yl)amino)pyrimidin-4-yl)-2-methylphenyl)ethyl)-1,2,4-oxadiazole-5-carboxamide]",3.93,> 10000
"Cc1cc(-c2cc(Nc3ccc(N4CCN(CC5CCN(c6ccc(N7CCC(=O)NC7=O)cc6)CC5)CC4)c(C)n3)ncn2)ccc1[C@@H](C)NC(=O)c1nc(C(C)(C)C)no1 [Example 61, (R)-3-(tert-butyl)-N-(1-(4-(6-((5-(4-((1-(4-(2,4-dioxotetrahydropyrimidin-1(2H)-yl)phenyl)piperidin-4-yl)methyl)piperazin-1-yl)-6-methylpyridin-2-yl)amino)pyrimidin-4-yl)-2-methylphenyl)ethyl)-1,2,4-oxadiazole-5-carboxamide]",1.65,> 10000
Cc1cc(-c2cc(Nc3cc(C)c(N4CCN(CC5CCN(c6ccc(N7CCC(=O)NC7=O)cc6)CC5)CC4)cn3)ncn2)ccc1[C@@H](C)NC(=O)c1nc(C(C)(C)C)no1 [Example 62],12.3,> 10000
